Data from patent US12558357B2, “Tetrahydroquinazoline derivatives as selective cytotoxic agents” (Merck Sharp & Dohme LLC, priority 2020, dated 2026).
pEC50: −log10 of the molar value.

test system: PBMCs infected with VSV-G pseudotyped HIV virus (VSV-G/pNLG1-P2A-ΔEnv); assay: cells; type: cell-based, human; details: Homo sapiens, PBMC, read-out: EC50 (HIV-TACK cell kill activity)

SMILES | pEC50
O=C1Nc2cc(Cn3cnc(C(F)(F)F)cc3=O)c(F)cc2[C@@](C#CC2CC2)(C(F)(F)F)N1 [Example 38, (S)-4-(cyclopropylethynyl)-6-fluoro-7-((6-oxo-4-(trifluoromethyl)pyrimidin-1(6H)-yl)methyl)-4-(trifluoromethyl)-3,4-dihydroquinazolin-2(1H)-one] | 7.06
Nc1cccn(Cc2cc3c(cc2F)[C@@](C#CC2CC2)(C(F)(F)F)NC(=O)N3)c1=O [Example 39, (S)-7-((3-amino-2-oxopyridin-1(2H)-yl)methyl)-4-(cyclopropylethynyl)-6-fluoro-4-(trifluoromethyl)-3,4-dihydroquinazolin-2(1H)-one] | 7.14
Nc1c(Cl)ncn(Cc2ccc3c(c2)NC(=O)N[C@]3(C#CC2CC2)C(F)(F)F)c1=O [Example 40, (S)-7-((5-amino-4-chloro-6-oxopyrimidin-1(6H)-yl)methyl)-4-(cyclopropylethynyl)-4-(trifluoromethyl)-3,4-dihydroquinazolin-2(1H)-one] | 7.19
Nc1cc(=O)n(Cc2cc3c(cc2F)[C@@](C#CC2CC2)(C(F)(F)F)NC(=O)N3)cn1 [Example 41, (S)-7-((4-amino-6-oxopyrimidin-1(6H)-yl)methyl)-4-(cyclopropylethynyl)-6-fluoro-4-(trifluoromethyl)-3,4-dihydroquinazolin-2(1H)-one] | 7.22
O=C1Nc2cc(Cn3cnc(C(F)(F)F)cc3=O)c(Cl)cc2[C@@](C#CC2CC2)(C(F)(F)F)N1 [Example 42, (S)-6-chloro-4-(cyclopropylethynyl)-7-((6-oxo-4-(trifluoromethyl)pyrimidin-1(6H)-yl)methyl)-4-(trifluoromethyl)-3,4-dihydroquinazolin-2(1H)-one] | 7.28
Cc1cc(=O)n(Cc2cc3c(cc2F)[C@@](C#CC2CC2)(C(F)(F)F)NC(=O)N3)cn1 [Example 43, (S)-4-(cyclopropylethynyl)-6-fluoro-7-((4-methyl-6-oxopyrimidin-1(6H)-yl)methyl)-4-(trifluoromethyl)-3,4-dihydroquinazolin-2(1H)-one] | 7.30
O=C1Nc2cc(Cn3cnc(Cl)cc3=O)c(F)cc2[C@@](C#CC2CC2)(C(F)(F)F)N1 [Example 44, (S)-7-((4-chloro-6-oxopyrimidin-1(6H)-yl)methyl)-4-(cyclopropylethynyl)-6-fluoro-4-(trifluoromethyl)-3,4-dihydroquinazolin-2(1H)-one] | 7.33
Nc1nccn(Cc2cc3c(cc2Br)[C@@](C#CC2CC2)(C(F)(F)F)NC(=O)N3)c1=O [Example 45, (S)-7-((3-amino-2-oxopyrazin-1(2H)-yl)methyl)-6-bromo-4-(cyclopropylethynyl)-4-(trifluoromethyl)-3,4-dihydroquinazolin-2(1H)-one] | 7.30
CN1C(=O)Nc2cc(Cn3ccnc(N)c3=O)ccc2[C@@]1(C#CC1CC1)C(F)(F)F [Example 46, (S)-7-((3-amino-2-oxopyrazin-1(2H)-yl)methyl)-4-(cyclopropylethynyl)-3-methyl-4-(trifluoromethyl)-3,4-dihydroquinazolin-2(1H)-one] | 7.00
Cc1cn(Cc2ccc3c(c2)NC(=O)N[C@]3(C#CC2CC2)C(F)(F)F)c(=O)[nH]c1=O [Example 47, (S)-1-((4-(cyclopropylethynyl)-2-oxo-4-(trifluoromethyl)-1,2,3,4-tetrahydroquinazolin-7-yl)methyl)-5-methylpyrimidine-2,4(1H,3H)-dione] | 6.87
CC(F)(F)[C@@]1(C#CC2CC2)NC(=O)Nc2cc(Cn3cnccc3=O)c(Cl)cc21 [Example 48, (S)-6-chloro-4-(cyclopropylethynyl)-4-(1,1-difluoroethyl)-7-((6-oxopyrimidin-1(6H)-yl)methyl)-3,4-dihydroquinazolin-2(1H)-one] | 7.92
O=C1Nc2c(cc(F)c(Cn3cnccc3=O)c2F)[C@@](C#CC2CC2)(C(F)(F)F)N1 [Example 49, (S)-4-(cyclopropylethynyl)-6,8-difluoro-7-((6-oxopyrimidin-1(6H)-yl)methyl)-4-(trifluoromethyl)-3,4-dihydroquinazolin-2(1H)-one] | 7.02
CC(F)(F)[C@@]1(C#CC2CC2)NC(=O)Nc2cc(Cn3ncccc3=O)c(F)cc21 [Example 50, (S)-4-(cyclopropylethynyl)-4-(1,1-difluoroethyl)-6-fluoro-7-((6-oxopyridazin-1(6H)-yl)methyl)-3,4-dihydroquinazolin-2(1H)-one] | 7.49
Cc1ccc(=O)n(Cc2cc3c(cc2F)[C@@](C#CC2CC2)(C(C)(F)F)NC(=O)N3)n1 [Example 51, (S)-4-(cyclopropylethynyl)-4-(1,1-difluoroethyl)-6-fluoro-7-((3-methyl-6-oxopyridazin-1(6H)-yl)methyl)-3,4-dihydroquinazolin-2(1H)-one] | 7.27
CC(F)(F)[C@@]1(C#CC2CC2)NC(=O)Nc2cc(Cn3ccnc(N)c3=O)ccc21 [Example 53, (S)-7-((3-amino-2-oxopyrazin-1(2H)-yl)methyl)-4-(cyclopropylethynyl)-4-(1,1-difluoroethyl)-3,4-dihydroquinazolin-2(1H)-one] | 7.74
O=C1Nc2cc(Cn3ccc(=O)[nH]c3=O)ccc2[C@@](C#CC2CC2)(C(F)(F)F)N1 [Example 54, (S)-1-((4-(cyclopropylethynyl)-2-oxo-4-(trifluoromethyl)-1,2,3,4-tetrahydroquinazolin-7-yl)methyl)pyrimidine-2,4(1H,3H)-dione] | 6.55
CC(F)(F)[C@@]1(C#CC2CC2)NC(=O)Nc2cc(Cn3cnccc3=O)ccc21 [Example 55, (S)-4-(cyclopropylethynyl)-4-(1,1-difluoroethyl)-7-((6-oxopyrimidin-1(6H)-yl)methyl)-3,4-dihydroquinazolin-2(1H)-one] | 7.02
O=C1Nc2cc(Cn3cnccc3=O)c(Cl)cc2[C@@](C#CC2CC2)(C(F)(F)F)N1 [Example 56, (S)-6-chloro-4-(cyclopropylethynyl)-7-((6-oxopyrimidin-1(6H)-yl)methyl)-4-(trifluoromethyl)-3,4-dihydroquinazolin-2(1H)-one] | 7.46
N#Cc1ncn(Cc2ccc3c(c2)NC(=O)N[C@]3(C#CC2CC2)C(F)(F)F)c(=O)c1N [Example 57, (S)-5-amino-1-((4-(cyclopropylethynyl)-2-oxo-4-(trifluoromethyl)-1,2,3,4-tetrahydroquinazolin-7-yl)methyl)-6-oxo-1,6-dihydropyrimidine-4-carbonitrile] | 6.90
Nc1nccn(Cc2cc3c(cc2Cl)[C@@](C#CC2CC2)(C(F)(F)F)NC(=O)N3)c1=O [Example 58, (S)-7-((3-amino-2-oxopyrazin-1(2H)-yl)methyl)-6-chloro-4-(cyclopropylethynyl)-4-(trifluoromethyl)-3,4-dihydroquinazolin-2(1H)-one] | 7.39
Cc1cn(Cc2ccc3c(c2)NC(=O)N[C@]3(C#CC2CC2)C(F)(F)F)c(=O)c(N)n1 [Example 59, (S)-7-((3-amino-5-methyl-2-oxopyrazin-1(2H)-yl)methyl)-4-(cyclopropylethynyl)-4-(trifluoromethyl)-3,4-dihydroquinazolin-2(1H)-one] | 7.11
Cc1nc(N)c(=O)n(Cc2ccc3c(c2)NC(=O)N[C@]3(C#CC2CC2)C(F)(F)F)c1C [Example 60, (S)-7-((3-amino-5,6-dimethyl-2-oxopyrazin-1(2H)-yl)methyl)-4-(cyclopropylethynyl)-4-(trifluoromethyl)-3,4-dihydroquinazolin-2(1H)-one] | 6.81
COCc1cc(=O)n(Cc2cc3c(cc2Cl)[C@@](C#CC2CC2)(C(F)(F)F)NC(=O)N3)cn1 [Example 61, (S)-6-chloro-4-(cyclopropylethynyl)-7-((4-(methoxymethyl)-6-oxopyrimidin-1(6H)-yl)methyl)-4-(trifluoromethyl)-3,4-dihydroquinazolin-2(1H)-one] | 7.42
O=C1Nc2cc(Cn3cnc(C(F)F)cc3=O)c(Cl)cc2[C@@](C#CC2CC2)(C(F)(F)F)N1 [Example 62, (S)-6-chloro-4-(cyclopropylethynyl)-7-((4-(difluoromethyl)-6-oxopyrimidin-1(6H)-yl)methyl)-4-(trifluoromethyl)-3,4-dihydroquinazolin-2(1H)-one] | 7.39
O=C1Nc2cc(Cn3cnc(CO)cc3=O)ccc2[C@@](C#CC2CC2)(C(F)(F)F)N1 [Example 63, (S)-4-(cyclopropylethynyl)-7-((4-(hydroxymethyl)-6-oxopyrimidin-1(6H)-yl)methyl)-4-(trifluoromethyl)-3,4-dihydroquinazolin-2(1H)-one] | 6.84
Cc1cc(=O)n(Cc2ccc3c(c2)NC(=O)N[C@]3(C#CC2CC2)C(C)(F)F)cn1 [Example 64, (S)-4-(cyclopropylethynyl)-4-(1,1-difluoroethyl)-7-((4-methyl-6-oxopyrimidin-1(6H)-yl)methyl)-3,4-dihydroquinazolin-2(1H)-one] | 7.03
O=C1Nc2cc(Cn3cnc(CO)cc3=O)c(F)cc2[C@@](C#CC2CC2)(C(F)(F)F)N1 [Example 65, (S)-4-(cyclopropylethynyl)-6-fluoro-7-((4-(hydroxymethyl)-6-oxopyrimidin-1(6H)-yl)methyl)-4-(trifluoromethyl)-3,4-dihydroquinazolin-2(1H)-one] | 7.35
O=C1Nc2cc(Cn3cncc(CO)c3=O)c(F)cc2[C@@](C#CC2CC2)(C(F)(F)F)N1 [Example 66, (S)-4-(cyclopropylethynyl)-6-fluoro-7-((5-(hydroxymethyl)-6-oxopyrimidin-1(6H)-yl)methyl)-4-(trifluoromethyl)-3,4-dihydroquinazolin-2(1H)-one] | 6.73
CC(F)(F)[C@@]1(C#CC2CC2)NC(=O)Nc2cc(Cn3ccnc(N)c3=O)c(F)cc21 [Example 67, (S)-7-((3-amino-2-oxopyrazin-1(2H)-yl)methyl)-4-(cyclopropylethynyl)-4-(1,1-difluoroethyl)-6-fluoro-3,4-dihydroquinazolin-2(1H)-one] | 7.92
Nc1nc(Cl)cn(Cc2ccc3c(c2)NC(=O)N[C@]3(C#CC2CC2)C(F)(F)F)c1=O [Example 68, (S)-7-((3-amino-5-chloro-2-oxopyrazin-1(2H)-yl)methyl)-4-(cyclopropylethynyl)-4-(trifluoromethyl)-3,4-dihydroquinazolin-2(1H)-one] | 7.15
